Reference: patent US20240158370A1, “CK1 alpha AND DUAL CK1 alpha / GSPT1 DEGRADING COMPOUNDS” (Innovo Therapeutics, Inc., priority 2022, published 2024)

Key:
GSPT1 = GSPT1 (Homo sapiens, UniProt P15170+Q96SW2); experiment: HiBiT degradation assay, GSPT1, Procedure A; assay type: cell-based; parameters: HiBit-GSPT1 KI HEK293(LgBit) Cells; host or cells: HEK293(LgBit) knock-in cells; settings: six hours
Summary of the method: (§1)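 Luminescence from HiBiT lytic detection reports remaining tagged protein after cells sit six hours at 37° C with compound across ten concentrations (10 μM down to 0.005 μM, 0.1% DMSO). A 4-parameter curve fit gives DC50 and Ymin.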

CK1α = molecular target: T1, CK1α (Homo sapiens, UniProt P48729+Q96SW2); experiment: HiBiT degradation assay, CK1α, Procedure A; assay type: cell-based; settings: six hours
T1 construct: CSNK1A1-HiBit KI HEK293(LgBit) Cells; host or cells: HEK293(LgBit) knock-in cells
T1 sequence (P48729 whole entry): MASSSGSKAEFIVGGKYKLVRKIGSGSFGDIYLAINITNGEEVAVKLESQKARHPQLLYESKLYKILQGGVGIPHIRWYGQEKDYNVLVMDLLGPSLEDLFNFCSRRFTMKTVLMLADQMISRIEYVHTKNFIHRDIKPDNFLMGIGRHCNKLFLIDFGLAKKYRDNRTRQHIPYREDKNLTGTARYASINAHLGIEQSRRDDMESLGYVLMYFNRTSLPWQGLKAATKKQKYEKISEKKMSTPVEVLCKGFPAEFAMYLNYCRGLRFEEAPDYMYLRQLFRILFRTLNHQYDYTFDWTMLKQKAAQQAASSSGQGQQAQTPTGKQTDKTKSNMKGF
T1 sequence (Q96SW2 whole entry): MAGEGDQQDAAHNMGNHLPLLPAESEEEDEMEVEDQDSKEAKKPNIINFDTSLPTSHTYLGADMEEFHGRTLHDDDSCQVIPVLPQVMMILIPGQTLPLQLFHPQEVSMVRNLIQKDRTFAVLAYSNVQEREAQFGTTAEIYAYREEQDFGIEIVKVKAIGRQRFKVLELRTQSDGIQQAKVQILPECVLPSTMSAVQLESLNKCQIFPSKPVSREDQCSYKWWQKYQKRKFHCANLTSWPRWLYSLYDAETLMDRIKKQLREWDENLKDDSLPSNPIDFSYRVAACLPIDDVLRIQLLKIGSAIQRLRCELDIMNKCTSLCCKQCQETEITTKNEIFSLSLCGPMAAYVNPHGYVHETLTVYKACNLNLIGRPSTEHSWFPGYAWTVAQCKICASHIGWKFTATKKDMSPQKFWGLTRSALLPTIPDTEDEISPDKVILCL
T1 sequence (Q16531 whole entry partner): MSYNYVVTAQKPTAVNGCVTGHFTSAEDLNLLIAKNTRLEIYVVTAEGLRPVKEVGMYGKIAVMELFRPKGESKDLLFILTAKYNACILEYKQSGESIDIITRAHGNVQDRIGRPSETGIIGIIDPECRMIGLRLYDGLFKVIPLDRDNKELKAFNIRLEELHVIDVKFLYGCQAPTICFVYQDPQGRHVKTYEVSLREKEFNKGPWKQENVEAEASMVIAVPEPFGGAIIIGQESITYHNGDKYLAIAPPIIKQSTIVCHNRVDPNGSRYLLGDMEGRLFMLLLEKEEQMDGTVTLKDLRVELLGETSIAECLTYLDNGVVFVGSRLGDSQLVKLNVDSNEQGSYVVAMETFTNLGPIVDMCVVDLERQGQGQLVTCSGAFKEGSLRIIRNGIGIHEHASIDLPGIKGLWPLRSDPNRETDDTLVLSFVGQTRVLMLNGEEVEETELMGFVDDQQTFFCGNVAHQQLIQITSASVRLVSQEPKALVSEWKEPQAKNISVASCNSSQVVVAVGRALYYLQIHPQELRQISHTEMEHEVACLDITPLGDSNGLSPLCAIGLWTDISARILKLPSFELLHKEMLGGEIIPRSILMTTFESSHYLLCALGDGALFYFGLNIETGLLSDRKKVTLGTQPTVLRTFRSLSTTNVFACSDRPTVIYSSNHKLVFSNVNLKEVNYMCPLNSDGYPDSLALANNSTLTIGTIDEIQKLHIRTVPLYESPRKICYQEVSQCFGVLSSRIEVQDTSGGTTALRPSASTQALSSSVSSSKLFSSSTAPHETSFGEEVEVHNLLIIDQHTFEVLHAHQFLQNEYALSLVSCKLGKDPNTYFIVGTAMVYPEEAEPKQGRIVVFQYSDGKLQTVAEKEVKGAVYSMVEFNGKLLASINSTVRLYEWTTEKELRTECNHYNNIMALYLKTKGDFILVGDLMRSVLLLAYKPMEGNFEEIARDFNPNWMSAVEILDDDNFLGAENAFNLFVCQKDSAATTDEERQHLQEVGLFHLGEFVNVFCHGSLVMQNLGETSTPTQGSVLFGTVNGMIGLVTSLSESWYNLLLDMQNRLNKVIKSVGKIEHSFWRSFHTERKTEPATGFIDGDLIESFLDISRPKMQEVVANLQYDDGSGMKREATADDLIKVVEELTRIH
Summary of the method: as §1

Chain of GSPT1 (P15170 whole entry): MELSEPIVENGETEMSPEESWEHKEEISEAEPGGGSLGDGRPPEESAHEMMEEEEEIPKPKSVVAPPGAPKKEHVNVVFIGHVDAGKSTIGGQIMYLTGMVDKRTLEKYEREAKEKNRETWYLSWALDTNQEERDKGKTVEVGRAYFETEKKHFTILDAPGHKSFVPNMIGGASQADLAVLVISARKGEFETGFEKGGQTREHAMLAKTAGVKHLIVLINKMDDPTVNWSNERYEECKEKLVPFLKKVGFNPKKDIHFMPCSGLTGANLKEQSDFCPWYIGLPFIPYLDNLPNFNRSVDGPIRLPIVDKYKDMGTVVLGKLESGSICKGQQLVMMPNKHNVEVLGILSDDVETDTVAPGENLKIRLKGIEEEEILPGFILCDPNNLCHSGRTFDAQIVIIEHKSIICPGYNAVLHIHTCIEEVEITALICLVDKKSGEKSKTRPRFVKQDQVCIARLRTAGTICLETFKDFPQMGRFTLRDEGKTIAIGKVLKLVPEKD
Chain of GSPT1 (Q96SW2 whole entry): as the sequence (Q96SW2 whole entry) above
Chain of GSPT1 (Q16531 whole entry partner): as the sequence (Q16531 whole entry partner) above

Row | SMILES | DC50 (GSPT1) [nM] | GSPT1 Ymin (GSPT1) | CK1α Ymin (CK1α) | DC50 (CK1α) [nM]
1 | Cn1cnc(-c2ccc3c(c2)CN(C2CCC(=O)NC2=O)C3=O)c1-c1ccc2ccn(C)c2c1 (stereo not drawn) [Example 529] | < 25 | F (F = >75-100% remaining) | D (D = >10- 25% remaining) | < 25
2 | Cn1cnc(-c2ccc3c(c2)CN(C2CCC(=O)NC2=O)C3=O)c1-c1ccn(-c2ccc(F)cc2)n1 (stereo not drawn) [Example 530] | < 25 | F (F = >75-100% remaining) | E (E = >25-75% remaining) | < 25
3 | Cn1cnc(-c2ccc3c(c2)CN(C2CCC(=O)NC2=O)C3=O)c1-c1cn[nH]c1 (stereo not drawn) [Example 531] | ≥ 25 | E (E = >25-75% remaining) | C (C = 0-10% remaining) | ≥ 25
4 | Cn1cc(-c2ccc3c(c2)CN(C2CCC(=O)NC2=O)C3=O)nc1C1CCOCC1 (stereo not drawn) [Example 532, 3-(5-(1-methyl-2-(tetrahydro-2H-pyran-4-yl)-1H-imidazol-4-yl)-1-oxoisoindolin-2-yl)piperidine-2,6-dione] | ≥ 25 | F (F = >75-100% remaining) | D (D = >10- 25% remaining) | < 25
5 | Cn1nc(-c2ccc3c(c2)CN(C2CCC(=O)NC2=O)C3=O)cc1-c1cncnc1 (stereo not drawn) [Example 533] | ≥ 25 | F (F = >75-100% remaining) | E (E = >25-75% remaining) | ≥ 25
6 | Cn1cc(-c2ccc3c(c2)CN(C2CCC(=O)NC2=O)C3=O)nc1C1CCC2(CC1)CC2 (stereo not drawn) [Example 534, 3-(5-(1-Methyl-2-(spiro[2.5]octan-6-yl)-1H-imidazol-4-yl)-1-oxoisoindolin-2-yl)piperidine-2,6-dione] | ≥ 25 | F (F = >75-100% remaining) | D (D = >10- 25% remaining) | < 25
7 | Cn1c(C2CCOCC2)nc(-c2ccc3c(c2)CN(C2CCC(=O)NC2=O)C3=O)c1-c1cncnc1 (stereo not drawn) [Example 535, 3-(5-(1-methyl-5-(pyrimidin-5-yl)-2-(tetrahydro-2H-pyran-4-yl)-1H-imidazol-4-yl)-1-oxoisoindolin-2-yl)piperidine-2,6-dione] | ≥ 25 | F (F = >75-100% remaining) | D (D = >10- 25% remaining) | ≥ 25
8 | O=C1CCC(N2Cc3cc(-c4cn(C(F)F)nc4-c4cncnc4)ccc3C2=O)C(=O)N1 (stereo not drawn) [Example 536, 3-(5-(1-(difluoromethyl)-3-(pyrimidin-5-yl)-1H-pyrazol-4-yl)-1-oxoisoindolin-2-yl)piperidine-2,6-dione] | ≥ 25 | F (F = >75-100% remaining) | F (F = >75-100% remaining) | ≥ 25
9 | Cn1c(-c2ccc3c(c2)CN(C2CCC(=O)NC2=O)C3=O)cnc1N1CCCCC1 (stereo not drawn) [Example 537, 3-(5-(1-methyl-2-(piperidin-1-yl)-1H-imidazol-5-yl)-1-oxoisoindolin-2-yl)piperidine-2,6-dione] | ≥ 25 | F (F = >75-100% remaining) | D (D = >10- 25% remaining) | < 25
10 | Cn1nc(-c2ccc3c(c2)CN(C2CCC(=O)NC2=O)C3=O)cc1C1CCOCC1 (stereo not drawn) [Example 538, 3-(5-(1-methyl-5-(tetrahydro-2H-pyran-4-yl)-1H-pyrazol-3-yl)-1-oxoisoindolin-2-yl)piperidine-2,6-dione] | ≥ 25 |  | D (D = >10- 25% remaining) | < 25
11 | Cn1cc(-c2ccc3c(c2)CN(C2CCC(=O)NC2=O)C3=O)nc1C1CCC(C)(C)CC1 (stereo not drawn) [Example 539, 3-(5-(2-(4,4-dimethylcyclohexyl)-1-methyl-1H-imidazol-4-yl)-1-oxoisoindolin-2-yl)piperidine-2,6-dione] | ≥ 25 | F (F = >75-100% remaining) | E (E = >25-75% remaining) | < 25
12 | Cn1c(C(F)F)nc(-c2ccc3c(c2)CN(C2CCC(=O)NC2=O)C3=O)c1-c1cncnc1 (stereo not drawn) [Example 540, 3-(5-(2-(difluoromethyl)-1-methyl-5-(pyrimidin-5-yl)-1H-imidazol-4-yl)-1-oxoisoindolin-2-yl)piperidine-2,6-dione] | ≥ 25 | F (F = >75-100% remaining) | C (C = 0-10% remaining) | < 25
13 | Cn1ncc(-c2ccc3c(c2)CN(C2CCC(=O)NC2=O)C3=O)c1-c1ccc(C(C)(F)F)cc1 (stereo not drawn) [Example 541, 3-(5-(5-(4-(1,1-difluoroethyl)phenyl)-1-methyl-1H-pyrazol-4-yl)-1-oxoisoindolin-2-yl)piperidine-2,6-dione] | < 25 | F (F = >75-100% remaining) | D (D = >10- 25% remaining) | < 25
14 | Cn1ncc(-c2ccc3c(c2)CN(C2CCC(=O)NC2=O)C3=O)c1-c1ccc2c(c1)OC(F)(F)O2 (stereo not drawn) [Example 542, 3-(5-(5-(2,2-difluorobenzo[d][1,3]dioxol-5-yl)-1-methyl-1H-pyrazol-4-yl)-1-oxoisoindolin-2-yl)piperidine-2,6-dione] | < 25 | F (F = >75-100% remaining) | C (C = 0-10% remaining) | < 25
15 | CC(C)c1nc(-c2ccc3c(c2)CN(C2CCC(=O)NC2=O)C3=O)c(-c2cncnc2)n1C (stereo not drawn) [Example 543, 3-[5-(2-isopropyl-1-methyl-5-pyrimidin-5-yl-imidazol-4-yl)-1-oxo-isoindolin-2-yl]piperidine-2,6-dione] | ≥ 25 | F (F = >75-100% remaining) | C (C = 0-10% remaining) | < 25
16 | Cc1nc(-c2ccc3c(c2)CN(C2CCC(=O)NC2=O)C3=O)c(-c2cncnc2)n1C (stereo not drawn) [Example 544, 3-(5-(1,2-dimethyl-5-(pyrimidin-5-yl)-1H-imidazol-4-yl)-1-oxoisoindolin-2-yl)piperidine-2,6-dione] | ≥ 25 | F (F = >75-100% remaining) | E (E = >25-75% remaining) | ≥ 25
17 | Cn1cc(-c2ccc3c(c2)CN(C2CCC(=O)NC2=O)C3=O)nc1C1CCC(F)(F)CC1 (stereo not drawn) [Example 545, 3-(5-(2-(4,4-difluorocyclohexyl)-1-methyl-1H-imidazol-4-yl)-1-oxoisoindolin-2-yl)piperidine-2,6-dione] | ≥ 25 | F (F = >75-100% remaining) | D (D = >10- 25% remaining) | < 25
18 | Cc1ncc(-c2c(-c3ccc4c(c3)CN(C3CCC(=O)NC3=O)C4=O)nc(C3CC3)n2C)cn1 (stereo not drawn) [Example 547, 3-(5-(2-cyclopropyl-1-methyl-5-(2-methylpyrimidin-5-yl)-1H-imidazol-4-yl)-1-oxoisoindolin-2-yl)piperidine-2,6-dione] | ≥ 25 | F (F = >75-100% remaining) | D (D = >10- 25% remaining) | < 25
19 | Cn1c(C2CC2)nc(-c2ccc3c(c2)CN(C2CCC(=O)NC2=O)C3=O)c1-c1cnc(C2CC2)nc1 (stereo not drawn) [Example 548, 3-(5-(2-cyclopropyl-5-(2-cyclopropylpyrimidin-5-yl)-1-methyl-1H-imidazol-4-yl)-1-oxoisoindolin-2-yl)piperidine-2,6-dione] | ≥ 25 | F (F = >75-100% remaining) | D (D = >10- 25% remaining) | < 25
